Columns and labels:
Type in all cases: in vivo
[1] = test system: Pepper plants (Capsicum frutescens L., CPSFR); assay: Crop injury after shielded spray around transplanted pepper plants (Example 3, Table 7)
Excerpt: In a third set of trials pepper plants (Capsicum frutescens L., CPSFR) were manually transplanted at a growth stage of BBCH 13 in a field and grown until they reached BBCH growth stage of 14 or roughly 10 cm average crop height.
Application was made using a compressed air sprayer and a handheld 1 nozzle spray lance. The nozzle was shielded by a spray shield to prevent unintended spray drift during application. The application was made at damp soil conditions and calm wind around each single pepper plant. The crop plants were shielded from spray drift during application and spray slurry reached only the soil and weed cover surrounding the pepper plants.
(§1) […] The crop injury was rated were visually on a percentage scale in relation to the untreated control (100%=all plants dead; 50%=green plant biomass reduced by 50%, and 0%=no discernible difference=like control plot).

Soybeans (GLXMA) [2] = assay: Crop injury after spray with crop rows covered by rain gutters, soybeans (Example 2, Table 6); conditions: MSO + AMS
Excerpt: In a second set of trials Soybeans (GLXMA) were planted in a standard planting system with 30 in row spacing and grown until they reached a BBCH growth stage of 11-12 or roughly 12 cm average height.
Application was made using a CO2 pressurized backpack sprayer and a handheld 6 nozzle boom, operating at 2.5 bar. The application was made at damp soil conditions and a windspeed of 0-15 km/h. The crop rows were covered during the actual spray application using upside down metal rain gutters (10 cm×10 cm depth×width) covering the crop and the soil below of about 5 cm on either side from the crop row center. All treatments included 1.5 L of a methylated seed oil (MSO) and 2 Kg/ha Ammonium sulfate (AMS) salt source and were mixed into 1 L fraction of an equivalent to 200 L/ha spray solution.
as §1

Soybeans (GLXMA) [3] = assay: Crop injury after hooded band spot-spray between crop rows, soybeans (Example 1, Table 5); conditions: 1440 g a.i./ha, MSO + AMS
Excerpt: Sunflower (HELAN), Corn (ZEAMD) and Soybeans (GLXMA) were planted in a standard planting system with 30 in row spacing and grown until they reached a BBCH growth stage of 16-18; 12-13 and 14, respectively.
Application was made using a CO2 pressurized backpack sprayer and a handheld two nozzle boom, operating at 2.75 bar. Each of the nozzles (TeeJet Extended Air Induction nozzle 0015) was equipped with a plastic hood covering a 38 cm band left and right of each crop row and preventing unintended spray drift outside the band. The spray solution covered a band of roughly 38 cm on either side of the crop row with an average distance 8 cm to the row center and 2-10 cm distance between soil surface and lower end of the spray shield. The application was made at damp soil conditions and a windspeed of 0-10 km/h. All treatments included 1.5 L of an methylated seed oil (MSO) and 2 Kg/ha Ammonium sulfate (AMS) salt source and were mixed into 1 L fraction of an equivalent to 187 L/ha spray solution.
The crop injury assessments were conducted as visual assessments at 15, 28 and 45 days after application (DAA) in case of Sunflower and soybeans and at 14 and 27 DAA in case of com. Also in case of Table 5 assessments were done in soybeans at 15, 25 and 44 DAA. The crop injury was rated were visually on a percentage scale in relation to the untreated control (100%=all plants dead; 50% =green plant biomass reduced by 50%, and 0%=no discernible difference=like control plot).

Measured: Crop injury [% untreated]

C=CC1(C(=O)NC2COC(C(=O)OC)C2)CC(c2cc(F)cc(F)c2)=NO1 (mixture of isomers) [A 1.68]
0 % untreated: [1]; 100 g a.i./ha, 5 DAA | [1]; 100 g a.i./ha, 7 DAA | [1]; 100 g a.i./ha, 14 DAA | [1]; 150 g a.i./ha, 5 DAA | [1]; 150 g a.i./ha, 7 DAA | [1]; 150 g a.i./ha, 14 DAA | Soybeans (GLXMA) [2]; 100 g a.i./ha, 7 DAA | Soybeans (GLXMA) [2]; 100 g a.i./ha, 15 DAA | Soybeans (GLXMA) [2]; 100 g a.i./ha, 28 DAA | Soybeans (GLXMA) [2]; 100 g a.i./ha, 45 DAA | Soybeans (GLXMA) [2]; 200 g a.i./ha, 7 DAA | Soybeans (GLXMA) [2]; 200 g a.i./ha, 15 DAA | Soybeans (GLXMA) [2]; 200 g a.i./ha, 28 DAA | Soybeans (GLXMA) [2]; 200 g a.i./ha, 45 DAA

O=C(O)CNCP(=O)(O)O [Glyphosate, glyphosate, reference compound]
0 % untreated: Soybeans (GLXMA) [3]; 15 DAA | Soybeans (GLXMA) [3]; 25 DAA | Soybeans (GLXMA) [3]; 44 DAA | Soybeans (GLXMA) [2]; 1440 g a.i./ha, 7 DAA | Soybeans (GLXMA) [2]; 1440 g a.i./ha, 15 DAA | Soybeans (GLXMA) [2]; 1440 g a.i./ha, 28 DAA | Soybeans (GLXMA) [2]; 1440 g a.i./ha, 45 DAA
